This is an account of results in PubChem BioAssay AID248 (DTP/NCI, 2004).

The assay concerns L1210 leukemia ip in BDF1 mice, survival T/C. Put plainly: NCI In Vivo Anticancer Drug Screen. Data for tumor model L1210 Leukemia (intraperitoneal) in B6D2F1 (BDF1) mice. The note with it: endpoint: mean survival time, higher = longer survival. In a few lines:
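Mice bearing the transplanted tumor received compound or vehicle. Survival of the treated group was divided by that of the vehicle-treated control group to give the ratio.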

Setting [1] is: dose: 25.0 mg/kg/injection, schedule: Q01DX009 (ip), vehicle: saline.
Where [2] appears, read: dose: 50.0 mg/kg/injection, schedule: Q01DX009 (ip), vehicle: saline.
Setting [3] is: dose: 100.0 mg/kg/injection, schedule: Q01DX009 (ip), vehicle: saline.
Where [4] appears, read: dose: 50.0 mg/kg/injection, schedule: Q01DX009 (ip), vehicle: saline with Tween-80.
Where [5] appears, read: dose: 100.0 mg/kg/injection, schedule: Q01DX009 (ip), vehicle: saline with Tween-80.
[6] abbreviates: dose: 200.0 mg/kg/injection, schedule: Q01DX009 (ip), vehicle: saline with Tween-80.
[7] abbreviates: dose: 25.0 mg/kg/injection, schedule: Q01DX009 (ip), vehicle: saline with Tween-80.
[8] abbreviates: dose: 400.0 mg/kg/injection, schedule: Q01DX009 (ip), vehicle: saline with Tween-80.
Setting [9] is: dose: 100.0 mg/kg/injection, schedule: Q04DX003 (ip), vehicle: saline with Tween-80.
[10] abbreviates: dose: 50.0 mg/kg/injection, schedule: Q01DX001 (ip), vehicle: carboxymethylcellulose (CMC).
The mark [11] stands for this setting: dose: 100.0 mg/kg/injection, schedule: Q01DX001 (ip), vehicle: carboxymethylcellulose (CMC).
[12] abbreviates: dose: 200.0 mg/kg/injection, schedule: Q01DX001 (ip), vehicle: carboxymethylcellulose (CMC).
[13] abbreviates: dose: 400.0 mg/kg/injection, schedule: Q01DX001 (ip), vehicle: carboxymethylcellulose (CMC).
Where [14] appears, read: dose: 200.0 mg/kg/injection, schedule: Q04DX003 (ip), vehicle: saline with Tween-80.
Setting [15] is: dose: 100.0 mg/kg/injection, schedule: Q01DX009 (ip), vehicle: Klucel (hydroxypropylcellulose) (HPC).
Setting [16] is: dose: 200.0 mg/kg/injection, schedule: Q01DX009 (ip), vehicle: Klucel (hydroxypropylcellulose) (HPC).
Setting [17] is: dose: 400.0 mg/kg/injection, schedule: Q01DX009 (ip), vehicle: Klucel (hydroxypropylcellulose) (HPC).
Where [18] appears, read: dose: 100.0 mg/kg/injection, schedule: Q01DX001 (ip), vehicle: saline.
[19] abbreviates: dose: 200.0 mg/kg/injection, schedule: Q01DX001 (ip), vehicle: saline.
Where [20] appears, read: dose: 400.0 mg/kg/injection, schedule: Q01DX001 (ip), vehicle: saline.
The mark [21] stands for this setting: dose: 400.0 mg/kg/injection, schedule: Q04DX003 (ip), vehicle: saline with Tween-80.

Several values for one entry are separate records, joined by “and”; a condition that tells them apart may be missing. Equal values may be shown once. Inconclusive results and toxic doses are left out.

Consider `Cn1c(O)c(C=N)c(=O)n(C)c1=O`, for which the T/C by setting is: under setting [1], 101 % of control; under setting [2], 100 % of control; under setting [3], 87 % of control; (dose: 100.0 mg/kg/injection, schedule: Q04DX003 (ip), vehicle: saline) 98 % of control.
For `NS(=O)(=O)Cl`, the T/C is 98 % of control (dose: 100.0 mg/kg/injection, schedule: Q01DX009 (sc), vehicle: olive oil, sesame oil, peanut oil); 102 % of control (dose: 100.0 mg/kg/injection, schedule: Q04DX003 (sc), vehicle: olive oil, sesame oil, peanut oil); 100 % of control (dose: 200.0 mg/kg/injection, schedule: Q01DX009 (sc), vehicle: olive oil, sesame oil, peanut oil); 103 % of control (dose: 200.0 mg/kg/injection, schedule: Q04DX003 (sc), vehicle: olive oil, sesame oil, peanut oil); 95 % of control (dose: 400.0 mg/kg/injection, schedule: Q01DX009 (sc), vehicle: olive oil, sesame oil, peanut oil); 108 % of control (dose: 400.0 mg/kg/injection, schedule: Q04DX003 (sc), vehicle: olive oil, sesame oil, peanut oil).
Take `CCOC(=O)/C=[C](\C(=O)OCC)[Sn]([CH2]C)([CH2]C)[CH2]C`: the T/C by setting is: under setting [4], 104 % of control; under setting [5], 96 % of control; under setting [6], 93 % of control.
For `Nc1ncnc2nc(C3OC(CO)C(O)C3O)[nH]c12` (configuration not stated), the T/C reads like this: (dose: 100.0 mg/kg/injection, schedule: Q01DX005 (ip), vehicle: saline) 96 % of control; (dose: 200.0 mg/kg/injection, schedule: Q01DX005 (ip), vehicle: saline) 96 % of control.
As for `O=[N+]([O-])c1cc([N+](=O)[O-])c(Cl)s1`, the T/C is 97 % of control (dose: 12.5 mg/kg/injection, schedule: Q01DX009 (ip), vehicle: saline with Tween-80) and 91 % of control under setting [7].
For the compound `CN(C)/C=C1\NC(=S)NC1=O`, the T/C under setting [5] is 95 % of control, the T/C under setting [6] is 95 % of control and the T/C under setting [8] is 91 % of control.
For the compound `O=C(/C=C/c1cccc([N+](=O)[O-])c1)CCl`, the T/C by setting is: (dose: 25.0 mg/kg/injection, schedule: Q04DX003 (ip), vehicle: saline with Tween-80) 110 % of control; (dose: 50.0 mg/kg/injection, schedule: Q04DX003 (ip), vehicle: saline with Tween-80) 105 % of control; under setting [9], 103 % of control and 104 % of control.
On to `N#Cc1c2ccccc2nc2ccccc12`, for which the T/C runs as follows: under setting [10], 90 % of control; under setting [11], 92 % of control; under setting [12], 90 % of control; under setting [13], 90 % of control.
Take `O=C1CCCC(=O)c2ccccc21`: the T/C is 98 % of control under setting [11], 93 % of control under setting [12] and 102 % of control under setting [13].
For `COc1cccc2c1C(=O)c1c(O)c3c(c(O)c1C2=O)CC(O)(C(C)=O)CC3OC1CC(N)C(OC2CC(N)C(O)C(C)O2)C(C)O1` (configuration not stated), the T/C was 111 % of control (dose: 0.65 mg/kg/injection, schedule: Q01DX009 (ip), vehicle: saline); 117 % of control (dose: 1.25 mg/kg/injection, schedule: Q01DX009 (ip), vehicle: saline); 89 % of control (dose: 10.0 mg/kg/injection, schedule: Q01DX009 (ip), vehicle: saline).
Consider `C1CC2(C34CCC(CC3)C4)CCC1C2`, for which the T/C under setting [10] is 105 % of control, the T/C under setting [11] is 96 % of control, the T/C under setting [12] was 105 % of control and the T/C under setting [13] was 88 % of control.
Regarding `Cc1ccccc1NC(=O)N(C)N`, where the note is “dose: 75.0 mg/kg/injection, schedule: Q01DX001 (ip), vehicle: carboxymethylcellulose (CMC)”, the T/C was 93 % of control.
With `C#CCOCCBr`, the T/C by setting is: under setting [9], 97 % of control; under setting [14], 95 % of control.
With `CCOC(=O)C(C)SCC(CSC(C)C(=O)OCC)(CSC(C)C(=O)OCC)CSC(C)C(=O)OCC` (configuration not stated), the T/C by setting is: (dose: 100.0 mg/kg/injection, schedule: Q01DX001 (ip), vehicle: saline with Tween-80) 104 % of control; (dose: 200.0 mg/kg/injection, schedule: Q01DX001 (ip), vehicle: saline with Tween-80) 107 % of control; (dose: 400.0 mg/kg/injection, schedule: Q01DX001 (ip), vehicle: saline with Tween-80) 104 % of control.
For the compound `COCc1ncc2cnccn12`, the T/C under setting [1] was 90 % of control; the T/C under setting [2] is 103 % of control; the T/C under setting [3] is 98 % of control and 103 % of control and 91 % of control; the T/C (dose: 200.0 mg/kg/injection, schedule: Q01DX009 (ip), vehicle: saline) is 93 % of control.
Consider `COC(=O)c1ccccc1NC(=O)Nc1ccc(F)c([N+](=O)[O-])c1`, for which the T/C was 109 % of control (dose: 25.0 mg/kg/injection, schedule: Q01DX009 (ip), vehicle: Klucel (hydroxypropylcellulose) (HPC)); 103 % of control (dose: 50.0 mg/kg/injection, schedule: Q01DX009 (ip), vehicle: Klucel (hydroxypropylcellulose) (HPC)); 93 % of control and 89 % of control under setting [15]; 95 % of control under setting [16]; 93 % of control under setting [17].
On to `O=C(NO)c1cc(Br)cc(Br)c1O`, for which the T/C runs as follows: under setting [7], 98 % of control; under setting [4], 102 % of control; under setting [5], 100 % of control; (dose: 100.0 mg/kg/injection, schedule: Q04DX002 (ip), vehicle: saline with Tween-80) 93 % of control; (dose: 200.0 mg/kg/injection, schedule: Q04DX002 (ip), vehicle: saline with Tween-80) 97 % of control; (dose: 400.0 mg/kg/injection, schedule: Q04DX002 (ip), vehicle: saline with Tween-80) 200 % of control.
On to `O=C(c1ccc(Cl)cc1)C(O)c1ccc(Cl)cc1` (configuration not stated), for which the T/C by setting is: (dose: 50.0 mg/kg/injection, schedule: Q01DX001 (ip), vehicle: saline) 96 % of control; under setting [18], 90 % of control; under setting [9], 90 % of control; under setting [19], 96 % of control; under setting [14], 92 % of control; under setting [20], 100 % of control. Further, under setting [21], the T/C was 86 % of control.
For `Cc1cccc(N2CCN(C(=S)c3ccccc3)CC2)c1`, the T/C under setting [18] is 93 % of control, the T/C under setting [19] is 93 % of control and the T/C under setting [20] was 98 % of control.
Regarding `NC(=O)c1ccc[n+](CCF)c1`, the T/C by setting is: under setting [18], 98 % of control; under setting [19], 98 % of control; under setting [20], 104 % of control.
`CC(NC(=O)Oc1cccc(NC(=O)N(C)C)c1)C(C)(C)C` (configuration not stated): the T/C under setting [5] is 109 % of control, the T/C under setting [6] is 96 % of control and the T/C under setting [8] is 98 % of control.
Consider `Nc1cc(S(N)(=O)=O)ccc1N1CCCCC1`, for which the T/C was 95 % of control under setting [9], 96 % of control under setting [14] and 101 % of control under setting [21].
For the compound `NC(=O)N/N=C1/CC2C3C=CC4C3CC2C14` (configuration not stated), the T/C was 117 % of control (dose: 37.5 mg/kg/injection, schedule: Q04DX002 (ip), vehicle: saline with Tween-80); 102 % of control (dose: 75.0 mg/kg/injection, schedule: Q04DX002 (ip), vehicle: saline with Tween-80); 106 % of control (dose: 150.0 mg/kg/injection, schedule: Q04DX002 (ip), vehicle: saline with Tween-80); 98 % of control (dose: 300.0 mg/kg/injection, schedule: Q04DX002 (ip), vehicle: saline with Tween-80).
On to `CCCCN1C(=O)C/C(=C2\CC(=O)N(CCCC)C2=O)C1=O`, for which the T/C under setting [15] was 91 % of control; the T/C (dose: 100.0 mg/kg/injection, schedule: Q04DX003 (ip), vehicle: Klucel (hydroxypropylcellulose) (HPC)) was 87 % of control; the T/C under setting [16] was 94 % of control; the T/C (dose: 200.0 mg/kg/injection, schedule: Q04DX003 (ip), vehicle: Klucel (hydroxypropylcellulose) (HPC)) is 101 % of control; the T/C under setting [17] was 91 % of control; the T/C (dose: 400.0 mg/kg/injection, schedule: Q04DX003 (ip), vehicle: Klucel (hydroxypropylcellulose) (HPC)) was 94 % of control.
